Assay results from PMC10011554, “BET inhibitor trotabresib in heavily pretreated patients with solid tumors and diffuse large B-cell lymphomas” (Nature Communications, 2023).
“And” between values parts separate entries of the source, which are not always exact repeats. Identical values can stand only once.

Experiments:
[1] = test system: advanced or unresectable solid tumors; experiment: Tumor response (RECIST v1.1/RANO), PFS and OS in phase I study, parts A and C; format: in vivo, human
Description: Secondary objectives were the preliminary efficacy of trotabresib in terms of clinical benefit rate (CR + PR + SD of ≥4 months’ duration), ORR (CR + PR), duration of response or SD, PFS, OS, and the PK of trotabresib. In addition, part C assessed the effects of food on the PK and the safety of trotabresib as a secondary objective. The pharmacodynamics of trotabresib were assessed as an exploratory objective.
Response was assessed using Response Evaluation Criteria in Solid Tumors (RECIST) v1.1[54] in patients with solid tumors, International Working Group criteria in patients with DLBCL[55], and Response Assessment in Neuro-Oncology (RANO) criteria[56] in patients with CNS tumors (astrocytoma and glioblastoma). For patients with BCC, the response was assessed using a combination of radiological assessment of target lesions per RECIST v1.1, digital clinical photography assessed per World Health Organization (WHO) criteria, and punch biopsies to confirm CR. PK parameters assessed included Cmax, tmax, AUC, t½, apparent clearance (CL/F), and apparent volume of distribution (Vz/F).
Bayesian logistic regression model based on dose-limiting toxicity was used to provide initial guidance for dose recommendations in the dose-escalation phase. The final decision was reached by considering the totality of safety, PK, and PD data. For binary efficacy endpoints, two-sided 95% Clopper–Pearson exact confidence intervals were provided. For time-to-event endpoints (PFS and OS), the median and 95% CI were estimated using the Kaplan–Meier method.

[2] = test system: SU-DHL-2 (ABC DLBCL); design: method as in Report CC-90010-Pharm-1018; details: SU DHL 2, Experiment 2, ref Report CC-90010-Pharm-1018; read-out: absolute IC50, proliferation; cited from earlier work
[3] = test system: OAT3; design: method as in Investigator's Brochure; details: OAT3, 30 µM, ref Investigator's Brochure; cited from earlier work
[4] = part A (N = 69), 02 Dec 2019 cutoff

Cn1cc(-c2cc(S(C)(=O)=O)ccc2OCC2CC2)c2ccccc2c1=O [trotabresib]
patients on treatment ≥24 cycles with sustained SD ([1]; part A): five | clinical benefit rate (CBR; CR, PR, or SD ≥4 months) ([1]; part A (N = 69)): 17.4% | objective response rate (ORR; CR or PR) ([1]; part A (N = 69)): 2.9% | subjects with SD [1, 4]: 33.3% | subjects with SD ≥ 4 months [1, 4]: 14.5% | subjects with confirmed CR [1, 4]: 1.4% | subjects with confirmed PR [1, 4]: 1.4% | Median OS (95% CI) ([1]; part A (n = 69)): 189 (161–258) days | Median PFS (95% CI) ([1]; part A (n = 69)): 57 (52–81) days | OS range ([1]; part A (n = 69)): 15 to 853 days | PFS range ([1]; part A (n = 69)): 11 to 945 days | subjects with stable disease ([1]; part A, 10 December 2018 cutoff): 27.5% | duration of confirmed partial response ([1]; part A, one patient with endometrial cancer): 8 cycles | duration of complete response ([1]; part A, one patient with grade 2 diffuse astrocytoma): 19 cycles | total treatment duration ([1]; part A, one patient with salivary gland cancer, ongoing at cycle 53): 4.0 years | time on treatment ([1]; part A, one patient with thymic cancer (38 cycles)): 3.1 years | further patients on treatment ≥1 year with sustained SD ([1]; part C): seven | best response CR ([1]; part C (N = 41)): 0% | best response PD ([1]; part C (N = 41)): 19.5% | best response PR ([1]; part C (N = 41)): 0% | CBR ([1]; part C (N = 41), treated population): 31.7% | ORR ([1]; part C (N = 41), treated population, confirmed responses): 0.0% | Median OS (95% CI) ([1]; part C (n = 41)): 508 days and 508 (239–NE) days | Median PFS (95% CI) ([1]; part C (n = 41)): 114 (84–239) days | OS range ([1]; part C (n = 41)): 33 to 508 days | PFS range ([1]; part C (n = 41)): 33 to 438 days | reduction in tumor size (minor response) ([1]; part C, one patient with refractory high-grade astrocytoma): 38% | treatment duration ([1]; part C, one patient with treatment-refractory high-grade astrocytoma, ongoing): 2.5 years | IC50 [2]: 100 nM | inhibition of mediated transport [3]: 53.6%
